Data on one molecule can be found in publication PMC12344696, “Elucidation of the Synergistic Interaction Between Bilirubin and Casein Protein: An Integrated Spectroscopy and Computational Approach” (Biomacromolecules, 2025).

SMILES strings stand for the structures.

This experiment has as its target T1, casein (CAS) protein; CAS micelles.
T1 construct: gene CSN1S1; whole casein mixture (alpha, beta, kappa), self-assembled micelles above CMC
In words: UV-vis absorption titration of BIL with casein, Hill1 fit. As to conditions: phosphate buffer pH 7.3, 298 K; casein mixture 0.05-3 mg/mL across the CMC; converted from a mg/mL fit with average casein mass 22,500 Da; read-out: binding constant (converted).

As for `C=CC1=C(C)/C(=C/c2[nH]c(Cc3[nH]c(/C=C4\NC(=O)C(C)=C4C=C)c(C)c3CCC(=O)O)c(CCC(=O)O)c2C)NC1=O` [BIL, bilirubin], the Kd was 33.3 µM.
